# Measurements as given in patent US20230203558A1, “[…] FOR USE IN A METHOD OF DIAGNOSIS OF VIRAL INFECTION, KIT AND SYSTEM” (Original G B.V., priority 2020, published 2023).
# Where “and” joins values, the source holds several entries; their conditions need not be identical. Equal values may be shown once. Where no end group is shown, it is not given here.
# Columns and labels:
# [1] = test system: saliva proteases; assay: Cross reactivity to saliva proteases; assay type: biochemical; design: key: −: Not observed; +: observed
# [2] = target: T1, SARS-CoV-2 main protease (Severe acute respiratory syndrome coronavirus 2, UniProt P0DTD1); conditions: 0.1 mg/mL peptide; for Cleavage of peptide (site) by SARS-CoV-2 main protease: protease 10 μM, RP-HPLC-MS
# Description: Mass spectra were acquired on a Agilent Technologies 6530 Accurate Mass Q-TOF LC/MS with an Agilent Infinity 1260/1290 HPLC. RP-HPLC was carried out using a RP-aqueous 030 analytical column, 5 uM, 150×2.0 mm [Phenomenex]. The mobile phase was A) 10 mM ammonium formate/2% v/v MeCN, pH 6.2 and B) 10 mM ammonium formate/90% v/v MeCN, pH 6.2.
# The gradient used was 0.2 mL-min, 25 minutes.
# 0.1 mg/mL solution of each peptide in Table 3 was incubated with SARS-CoV-2 main protease (at 10 μM).
# [3] = target: T1, SARS-CoV-2 main protease
# [4] = test system: Mycobacterium tuberculosis
# [5] = test system: Rhinovirus; assay: Clinical sample, Rhinovirus positive, relative activity on DeNIRO; conditions: peptide 20 μM
# [6] = test system: SARS-CoV-2; assay: Clinical samples PCR-characterized for SARS-CoV-2, relative activity on DeNIRO; conditions: peptide 20 μM; for Relative activity class, SARS-CoV-2 positive (swab): room temperature, 0-60 minutes
# [7] = test system: elastase; assay: Relative activity (NIR fluorescence) of quenched peptides with control protease elastase; assay type: biochemical
# [8] = test system: SARS-CoV-19 virus
Substance,Cross reactivity to saliva proteases [1],Cleavage of peptide (site) by SARS-CoV-2 main protease [2],Ratio for SARS-CoV-2 main protease to elastase [3],"Relative activity class, Mycobacterium tuberculosis positive [4]","Relative activity class, Rhinovirus positive [5]","Relative activity class, SARS-CoV-2 negative (saliva) [6]","Relative activity class, SARS-CoV-2 negative (swab) [6]","Relative activity class, SARS-CoV-2 positive (saliva) [6]","Relative activity class, SARS-CoV-2 positive (swab) [6]","Relative activity, Elastase 0.2 μM ([7]; peptide concentration 5 μM)","Relative activity, Elastase 0.2 μM ([7]; peptide concentration 20 μM)",increase in RFU [8],"Cleavage fragment ([2]; SARS-CoV-2 main protease 10 μM, 4 hours)","Relative activity, SARS-CoV-2 main protease 0.2 μM ([3]; pH 7.3)"
Cy7-Ahx-[PEG1]-HQS[PEG1]K(QC1)-CONH2 [Peptide 2],−,between Q-S,54,− (key: A relative activity of >10% indicates the presence of SARS-CoV-2 (+); a relative activity of <10% indicates absence of SARS-CoV-2 (−)),− (a relative activity of <10% indicates absence of SARS-CoV-2 (−)),− (a relative activity of <10% indicates absence of SARS-CoV-2 (−)),− (a relative activity of <10% indicates absence of SARS-CoV-2 (−)),+ (A relative activity of >10% indicates the presence of SARS-CoV-2 (+)),+ (A relative activity of >10% indicates the presence of SARS-CoV-2 (+)),0.1,0.9,,,
"Ex 1.1: fluorescently quenched peptide (TVRLQSGF) with fluorescent agent, non-fluorescent agent and cleavage site specific for a Coronavirus (also: fluorophore and quencher, sites not given here)",,,,,,,,,,,,An increase in RFU is detected,,
Cy7-Ahx-[PEG1]VLQS[PEG1]K(QC1)-CONH2 [Peptide 1],−,between Q-S,3.5,− (key: A relative activity of >10% indicates the presence of SARS-CoV-2 (+); a relative activity of <10% indicates absence of SARS-CoV-2 (−)),− (a relative activity of <10% indicates absence of SARS-CoV-2 (−)),− (a relative activity of <10% indicates absence of SARS-CoV-2 (−)),− (a relative activity of <10% indicates absence of SARS-CoV-2 (−)),+ (A relative activity of >10% indicates the presence of SARS-CoV-2 (+)),+ (A relative activity of >10% indicates the presence of SARS-CoV-2 (+)),7,8.5,,,
Cy7-Ahx-AAFAA-K(QC1)-CONH2 [Peptide 3],,No cleavage was observed,0.15,,,,,,,2.2,87.1,,NONE,0.4 and 0.6
